Reference: US8476449B2, “Radioactive iodine labeled organic compound or salt thereof” (Nihon Medi-Physics Co., Ltd., priority 2010, dated 2013)
Where two headings read alike, the source gives them in different places.

Key:
[1] = biological target: T1, tau protein aggregate (Homo sapiens, UniProt P10636); experiment: Inhibition constant toward tau protein aggregate (thioflavin S competition); assay type: binding; design: made in house; host or cells: E. coli BL21; conditions: for Ki ratios of Aβ42/Tau: ratio of Ki Aβ42 aggregate to Ki tau protein aggregate; for Ki: thioflavin S as ligand, tau protein aggregate, read-out: Ki values (Tau in Table 5)
Protocol: (§1) First, the dissociation constant (Kd) of thioflavin S used as a competitive ligand was first determined by a saturation experiment in order to calculate inhibition constants of compounds 1 to 3. That is, a mixed solution of a 10 vol % ethanol aqueous solution of thioflavin S (0.1-12.8 μmol/L) and the tau protein aggregate (final concentration 0.2 μmol/L, prepared in Example 9) or the Aβ42 aggregate (final concentration 2.2 μmol/L, prepared in Example 11) was incubated for 30 minutes, and the fluorescence intensity was measured using a fluorescence plate reader (FLEX STATION, Molecular Devices). The fluorescence intensity was measured at Ex 440 nm and Em 510 nm for the tau protein aggregate and Ex 440 nm and Em 490 nm for the Aβ42 aggregate. A saturation curve was prepared using GraphPad Prism, and the Kd value for thioflavin S was calculated.
(§2) Next, a mixed solution of a 10 volt ethanol aqueous solution of thioflavin S (1.5 μmol/L) and a test compound (0.6 nmol/L to 10 μmol/L) together with the tau protein aggregate (final concentration 0.2 μmol/L, prepared in Example 9) or the Aβ42 aggregate (final concentration 10 μg/ml, prepared in Example 11) was incubated for 30 minutes. Then, the fluorescence intensities at Ex 440 nm and Em 510 nm for the tau protein aggregate and Ex 440 nm and Em 490 nm for the Aβ42 aggregate were measured using a fluorescence plate reader (FLEX STATION, Molecular Devices). GraphPad Prism inhibition curves were prepared, and Ki values of compounds 1 to 3 were determined using the above obtained Kd value of thioflavin S.

[2] = biological target: T1, tau protein aggregate; experiment: Competitive inhibition experiment using thioflavin S (ThS) as ligand, fluorescence spectra; assay type: binding; design: made in house; host or cells: E. coli BL21; conditions: tau protein aggregate 0.2 μmol/L, thioflavin S 1.5 μmol/L, compound 0.1-2.7 μmol/L, excitation 440 nm
Protocol: Tau-441 expression vector (provided by Graduate School of Medicine, Osaka City University) was transferred to E. coli (BL21), culturing was carried out, and a tau protein was extracted and purified. Heparin (0.1 mg/mL) was added to the purified tau protein (1 mg/mL), and incubation in a 50 mmol/L MES buffer (pH 6.8, 100 mmol/L sodium chloride, 0.5 mmol/L EGTA) at 37° C. was carried out for 3 days, thus preparing an aggregate. Formation of the tau protein aggregate was confirmed by SDS-PAGE and thioflavin S fluorescence assay.
A mixed solution (550 μL) of the tau protein aggregate (final concentration […]) thus prepared, thioflavin S (Sigma Aldrich, final concentration 1.5 μmol/L), and compound 1, compound 2, or compound 3 solution at various concentrations (each having final concentrations of 0 to 2.7 μmol/L) was incubated for 30 minutes, and fluorescence spectra at an excitation wavelength of 440 nm were measured using a fluorescence spectrometer (RF-5300PC, Shimadzu Corporation).
In FIGS. 3 to 5, a is a fluorescence spectrum of a sample (sample I) containing only thioflavin S at 1.5 μmol/L, and b is a fluorescence spectrum of a sample (sample II) that is 0.2 μmol/L of the tau protein aggregate in sample I. In FIG. 3, c is a fluorescence spectrum of a sample that is 0.1 μmol/L of compound 1 in sample II, d is a fluorescence spectrum of a sample that is 0.3 μmol/L of compound 1 in sample II, e is a fluorescence spectrum of a sample that is 0.9 μmol/L of compound 1 in sample II, and f is a fluorescence spectrum of a sample that is 2.7 μmol/L of compound 1 in sample II. In FIG. 4, c is a fluorescence spectrum of a sample that is 0.1 μmol/L of compound 2 in sample II, d is a fluorescence spectrum of a sample that is 0.3 μmol/L of compound 2 in sample II, e is a fluorescence spectrum of a sample that is 0.9 μmol/L of compound 2 in sample II, and f is a fluorescence spectrum of a sample that is 2.7 μmol/L of compound 2 in sample II. […]

[3] = biological target: T2, Aβ42 aggregate (Homo sapiens, UniProt P05067); experiment: Inhibition constant toward Aβ42 aggregate (thioflavin S competition); assay type: binding; conditions: thioflavin S as ligand, read-out: Ki values (Aβ42 in Table 5)
T2 construct: Aβ (1-42) peptide; purchased Peptide Institute, Inc
Protocol: as §1, §2

[4] = system: phosphorylated tau protein; experiment: In vitro autoradiography using Alzheimer's disease patient-derived brain slice; assay type: binding, human; conditions: hippocampus slice of Alzheimer's disease patient, 3.07 kBq/mL, 1 hour
Protocol: A postmortem brain slice (paraffin-embedded slice) of the hippocampus of an Alzheimer's disease patient was purchased from BioChain. The brain slice was deparaffinized, a 10% ethanol-containing PBS solution (3.07 kBq/mL (0.083 μCi/mL)) of radioactive iodine-labeled compound 3 was added thereto, and a reaction was carried out for 1 hour. Subsequently, the sample was washed in sequence with a saturated lithium carbonate 50 vol % ethanol aqueous solution (2 minutes×2), a 50 volt ethanol aqueous solution (2 minutes×2), and purified water (30 seconds×2). The sample was exposed to light on an imaging plate for 48 hours, and analyzed using a bioimaging analyzer (model: BAS-5000, Fuji Photo Film Co., Ltd.). Furthermore, an adjacent slice was stained by an anti-phosphorylated tau protein antibody (AT8, Thermo).

[5] = biological target: T2, Aβ42 aggregate; experiment: Evaluation experiment of binding to amyloid β (filter radioactivity); conditions: Aβ42 aggregate 30 nmol/L, incubation 3 hours
Protocol: 0.5 mg of Aβ (1-42) peptide (purchased from Peptide Institute, Inc.) was dissolved in 2 mL of a PBS buffer containing 1 mmol/L of EDTA and incubated at 37° C. for 42 hours, thus preparing an Aβ42 aggregate. A glass tube was charged with a 10 vol % ethanol aqueous solution (900 μL), Aβ42 aggregate (50 μL, final concentration 30 nmol/L), and radioactive iodine-labeled compound 1, radioactive iodine-labeled compound 2, or radioactive iodine-labeled compound 3 (each 50 μL, 0.018-0.097 μCi), and incubation was carried out for 3 hours. B/F separation was carried out using a cell harvester (Brandel, M-24), and the radioactivity on the filter was measured in a γ counter. The proportion (%) of the radioactivity count on the filter relative to the radioactivity count of each sample used was determined, and binding of each compound to the Aβ42 aggregate was evaluated.
As a control, 4-dimethylamino-4′-iodochalcone (hereinafter, called a chalcone derivative) was prepared in accordance with a method described in the literature (Ono et al., Bioorg Med Chem, 15, 6802-6809, 2007), and the same experiment was carried out (radioactivity count in sample: […]-0.37 kBq (0.023-0.01 μCi)).

[6] = mice
Protocol: Mice were decapitated after 2, 10, 30, and 60 minutes, and then each organ was then removed after blood collection, and radiation counts were measured in a γ counter.

[7] = biological target: T1, tau protein aggregate; conditions: tau 0.37 μmol/L, incubated 1 to 1.5 hours, PD-10 column
Protocol: Mixed solutions of a tau protein aggregate (final concentration 0.37 μmol/L, prepared in Example 9) or an non-aggregated tau protein (final concentration 0.37 μmol/L) and radioactive iodine-labeled compound 1 (2.0 kBq (0.055 μCi)), radioactive iodine-labeled compound 2 (20 kBq (0.55 μCi)) or radioactive iodine-labeled form 3 (2.0 kBq (0.055 μCi)) were incubated for 1 hour to 1.5 hours, and then subjected to size exclusion chromatography (PD-10 column (GE Healthcare Japan), eluent: phosphate buffered-saline (PBS)). Subsequently, the radioactivity of an eluted fraction of the tau protein aggregate or the non-aggregated tau protein was measured in a γ counter.

[8] = 2 minutes after tail vein administration
[9] = 10 minutes after tail vein administration
[10] = 30 minutes after tail vein administration
[11] = 60 minutes after tail vein administration

T1 sequence (P10636 1-441 isoform P10636-8): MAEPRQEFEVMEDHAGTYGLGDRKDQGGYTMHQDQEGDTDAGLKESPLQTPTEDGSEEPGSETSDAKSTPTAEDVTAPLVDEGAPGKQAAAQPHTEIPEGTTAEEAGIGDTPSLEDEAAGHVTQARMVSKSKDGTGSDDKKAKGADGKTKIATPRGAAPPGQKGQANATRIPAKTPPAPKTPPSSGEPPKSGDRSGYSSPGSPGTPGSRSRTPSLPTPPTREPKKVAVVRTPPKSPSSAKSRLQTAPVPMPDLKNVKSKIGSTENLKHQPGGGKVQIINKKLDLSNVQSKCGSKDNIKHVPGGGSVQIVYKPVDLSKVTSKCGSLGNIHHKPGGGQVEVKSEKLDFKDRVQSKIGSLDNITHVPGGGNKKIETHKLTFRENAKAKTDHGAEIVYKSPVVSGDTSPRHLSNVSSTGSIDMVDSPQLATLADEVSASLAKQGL
T2 sequence (P05067 672-713 limits assumed): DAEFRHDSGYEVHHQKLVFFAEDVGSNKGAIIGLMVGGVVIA

CCOC(=O)CN1C(=O)/C(=C/c2ccc(-c3cccc(I)c3)o2)SC1=S [Compound 1, (Z)-ethyl-2-(5-((5-(3-iodophenyl)furan-2-yl)methylene)-4-oxo-2-thioxothiazolidin-3-yl)acetate]
Ki ratios of Aβ42/Tau [1]: 1.54 | Ki [1]: 489 nM | Inhibition of binding of tau protein aggregate to thioflavin S (fluorescence spectra) [2]: inhibition of binding of a tau protein aggregate to thioflavin S | Ki [3]: 752 nM

CCOC(=O)CN1C(=O)/C(=C/c2ccc(-c3cccc(I)c3)o2)NC1=S [Compound 2, (Z)-ethyl-2-(4-((5-(3-iodophenyl)furan-2-yl)methylene)-5-oxo-2-thioxoimidazolidin-1-yl)acetate]
Ki ratios of Aβ42/Tau [1]: 5.57 | Ki [1]: 155 nM | Inhibition of binding of tau protein aggregate to thioflavin S (fluorescence spectra) [2]: inhibition of binding of a tau protein aggregate to thioflavin S | Ki [3]: 864 nM

O=C1/C(=C/c2ccc(-c3cccc([125I])c3)o2)NC(=S)N1CCc1c[nH]cn1 [Radioactive iodine-labeled compound 3, (Z)-3-(2-(1H-Imidazol-4-yl)ethyl)-5-((5-(3-(^125I)iodophenyl)furan-2-yl)methylene)-2-thioxoimidazolidin-4-one]
Radioactivity distribution on brain slice vs anti-phosphorylated tau antibody (AT8) staining [4]: coincided with the distribution (FIG. 10b) of the phosphorylated tau protein | Binding to the Aβ42 aggregate (proportion of radioactivity count on the filter) [5]: significantly lower | Amount of radioactivity in organ: Blood [6, 8]: 8.16 ± 1.21 % ID/g | Amount of radioactivity in organ: Blood [6, 9]: 2.77 ± 0.21 % ID/g | Amount of radioactivity in organ: Blood [6, 10]: 2.11 ± 0.28 % ID/g | Amount of radioactivity in organ: Blood [6, 11]: 1.48 ± 0.27 % ID/g | Amount of radioactivity in organ: Brain [6, 8]: 1.54 ± 0.10 % ID/g | Amount of radioactivity in organ: Brain [6, 9]: 1.30 ± 0.12 % ID/g | Amount of radioactivity in organ: Brain [6, 10]: 0.66 ± 0.08 % ID/g | Amount of radioactivity in organ: Brain [6, 11]: 0.25 ± 0.02 % ID/g | Amount of radioactivity in organ: Heart [6, 8]: 8.48 ± 0.97 % ID/g | Amount of radioactivity in organ: Heart [6, 9]: 2.78 ± 0.19 % ID/g | Amount of radioactivity in organ: Heart [6, 10]: 1.73 ± 0.18 % ID/g | Amount of radioactivity in organ: Heart [6, 11]: 1.30 ± 0.37 % ID/g | Amount of radioactivity in organ: Intestine [6, 8]: 2.55 ± 0.16 % ID/g | Amount of radioactivity in organ: Intestine [6, 9]: 7.41 ± 1.21 % ID/g | Amount of radioactivity in organ: Intestine [6, 10]: 17.3 ± 1.67 % ID/g | Amount of radioactivity in organ: Intestine [6, 11]: 23.6 ± 2.39 % ID/g | Amount of radioactivity in organ: Kidney [6, 8]: 12.5 ± 0.76 % ID/g | Amount of radioactivity in organ: Kidney [6, 9]: 7.34 ± 0.70 % ID/g | Amount of radioactivity in organ: Kidney [6, 10]: 4.97 ± 0.71 % ID/g | Amount of radioactivity in organ: Kidney [6, 11]: 3.37 ± 0.30 % ID/g | Amount of radioactivity in organ: Liver [6, 8]: 35.0 ± 2.27 % ID/g | Amount of radioactivity in organ: Liver [6, 9]: 33.3 ± 1.41 % ID/g | Amount of radioactivity in organ: Liver [6, 10]: 27.2 ± 2.05 % ID/g | Amount of radioactivity in organ: Liver [6, 11]: 22.8 ± 2.13 % ID/g | Amount of radioactivity in organ: Lung [6, 8]: 11.4 ± 1.55 % ID/g | Amount of radioactivity in organ: Lung [6, 9]: 4.39 ± 0.42 % ID/g | Amount of radioactivity in organ: Lung [6, 10]: 3.00 ± 0.27 % ID/g | Amount of radioactivity in organ: Lung [6, 11]: 2.03 ± 0.14 % ID/g | Amount of radioactivity in organ: Pancreas [6, 8]: 3.30 ± 0.86 % ID/g | Amount of radioactivity in organ: Pancreas [6, 9]: 2.15 ± 0.23 % ID/g | Amount of radioactivity in organ: Pancreas [6, 10]: 1.15 ± 0.18 % ID/g | Amount of radioactivity in organ: Pancreas [6, 11]: 0.86 ± 0.08 % ID/g | Amount of radioactivity in organ: Spleen [6, 8]: 9.23 ± 0.63 % ID/g | Amount of radioactivity in organ: Spleen [6, 9]: 10.9 ± 2.78 % ID/g | Amount of radioactivity in organ: Spleen [6, 10]: 8.51 ± 2.68 % ID/g | Amount of radioactivity in organ: Spleen [6, 11]: 8.46 ± 2.57 % ID/g | Amount of radioactivity in organ: Stomach [6, 8]: 1.33 ± 0.25 % ID/g | Amount of radioactivity in organ: Stomach [6, 9]: 2.67 ± 1.59 % ID/g | Amount of radioactivity in organ: Stomach [6, 10]: 4.55 ± 1.28 % ID/g | Amount of radioactivity in organ: Stomach [6, 11]: 7.45 ± 5.07 % ID/g | Radioactivity of eluted fraction: aggregated tau vs non aggregated tau vs buffer [7]: specifically binding to a tau protein aggregate
